Data from ChEMBL document CHEMBL3885881, “DrugMatrix”.

Species: Rattus norvegicus
Experiment: DrugMatrix - Regimen: Daily Repeat
Assay type: toxicity, organism-based, Sprague-Dawley
Parameters: regimen Daily Repeat, gender Male, age 6-8 weeks
Conditions: in vivo, po, route oral GAVAGE, […]; for ABSOLUTE BASOPHIL / ABSOLUTE EOSINOPHIL / ABSOLUTE LYMPHOCYTE / ABSOLUTE MONOCYTE / ABSOLUTE SEGMENTED NEUTROPHIL / BASOPHIL / EOSINOPHIL / ERYTHROCYTE COUNT / HEMATOCRIT / HEMOGLOBIN / LEUKOCYTE COUNT / LYMPHOCYTE / MEAN CORPUSCULAR HEMOGLOBIN / MEAN CORPUSCULAR HEMOGLOBIN CONCENTRATION / MEAN CORPUSCULAR VOLUME / MONOCYTE / NEUTROPHIL / NUCLEATED RED BLOOD CELLS / PLATELET COUNT: tissue Blood; for ALANINE AMINOTRANSFERASE / ALBUMIN / ALKALINE PHOSPHATASE / ASPARTATE AMINOTRANSFERASE / BLOOD UREA NITROGEN / CARBON DIOXIDE / CHLORIDE / CHOLESTEROL / CREATINE PHOSPHOKINASE / CREATININE / GLUCOSE / LACTATE DEHYDROGENASE / LIPASE / PHOSPHORUS / POTASSIUM / SODIUM / TOTAL BILIRUBIN / TOTAL PROTEIN / URIC ACID: tissue Plasma
[1] = 0 mg/kg, 72 h, dose level Control, time 3 day
[2] = 0 mg/kg, dose level Control, time 7 day
[3] = 400 mg/kg, 72 h, dose level Low, time 3 day

With ClC(Cl)(Cl)Cl [CARBON TETRACHLORIDE] the “ABSOLUTE BASOPHIL” value [1] was 0 CELLS/uL, the “ABSOLUTE EOSINOPHIL” value [1] was 47.5 CELLS/uL and the “ABSOLUTE LYMPHOCYTE” value [1] was 9600.67 CELLS/uL. The “ABSOLUTE MONOCYTE” value [1] was 195.5 CELLS/uL, the “ABSOLUTE SEGMENTED NEUTROPHIL” value [1] was 839.67 CELLS/uL and the BASOPHIL [1] was 0%. For the same compound, the EOSINOPHIL [1] was 0.5%, the “ERYTHROCYTE COUNT” value [1] was 5.26 x10E6/uL and the HEMATOCRIT [1] was 34.48%. For the same compound, the HEMOGLOBIN [1] was 12.77 G/DL, the “LEUKOCYTE COUNT” value [1] was 10.68 x10E3/uL and the LYMPHOCYTE [1] was 89.67%. The “MEAN CORPUSCULAR HEMOGLOBIN” value [1] was 24.3 pg, the “MEAN CORPUSCULAR HEMOGLOBIN CONCENTRATION” value [1] was 37.05 G/DL and the “MEAN CORPUSCULAR VOLUME” value [1] was 65.62 fL. For the same compound, the MONOCYTE [1] was 1.83%, the NEUTROPHIL [1] was 8% and the “NUCLEATED RED BLOOD CELLS” value [1] was 0.17 /100WBC. The “PLATELET COUNT” value [1] was 1038.67 x10E3/uL, the “ALANINE AMINOTRANSFERASE” value [1] was 65.17 u/L and the ALBUMIN [1] was 4.2 G/DL. The “ALKALINE PHOSPHATASE” value [1] was 377.5 u/L, the “ASPARTATE AMINOTRANSFERASE” value [1] was 90.5 u/L and the “BLOOD UREA NITROGEN” value [1] was 13.5 mg/dL. The “CARBON DIOXIDE” value [1] was 31.17 mmol/L, the CHLORIDE [1] was 98.33 MEQ/L and the CHOLESTEROL [1] was 66.33 mg/dL. The “CREATINE PHOSPHOKINASE” value [1] was 478.83 u/L, the CREATININE [1] was 0.19 mg/dL and the GLUCOSE [1] was 155.17 mg/dL. For the same compound, the “LACTATE DEHYDROGENASE” value [1] was 107.5 u/L, the LIPASE [1] was 10.33 u/L and the PHOSPHORUS [1] was 9.25 mg/dL. The POTASSIUM [1] was 5.43 MEQ/L, the SODIUM [1] was 142.05 MEQ/L and the “TOTAL BILIRUBIN” value [1] was 0.12 mg/dL. For the same compound, the “TOTAL PROTEIN” value [1] was 5.95 G/DL, the “URIC ACID” value [1] was 0.62 mg/dL and the “ABSOLUTE BASOPHIL” value [2] was 0 CELLS/uL. For the same compound, the “ABSOLUTE EOSINOPHIL” value [2] was 43.5 CELLS/uL, the “ABSOLUTE LYMPHOCYTE” value [2] was 9369.83 CELLS/uL and the “ABSOLUTE MONOCYTE” value [2] was 196.17 CELLS/uL. The “ABSOLUTE SEGMENTED NEUTROPHIL” value [2] was 723.83 CELLS/uL, the BASOPHIL [2] was 0% and the EOSINOPHIL [2] was 0.5%. For the same compound, the “ERYTHROCYTE COUNT” value [2] was 5.09 x10E6/uL, the HEMATOCRIT [2] was 32.42% and the HEMOGLOBIN [2] was 13.1 G/DL. The “LEUKOCYTE COUNT” value [2] was 10.33 x10E3/uL, the LYMPHOCYTE [2] was 90.83% and the “MEAN CORPUSCULAR HEMOGLOBIN” value [2] was 25.75 pg. For the same compound, the “MEAN CORPUSCULAR HEMOGLOBIN CONCENTRATION” value [2] was 40.43 G/DL, the “MEAN CORPUSCULAR VOLUME” value [2] was 63.62 fL and the MONOCYTE [2] was 1.67%. For the same compound, the NEUTROPHIL [2] was 7%, the “NUCLEATED RED BLOOD CELLS” value [2] was 0 /100WBC and the “PLATELET COUNT” value [2] was 1106.5 x10E3/uL. For the same compound, the “ALANINE AMINOTRANSFERASE” value [2] was 48.67 u/L, the ALBUMIN [2] was 4.13 G/DL and the “ALKALINE PHOSPHATASE” value [2] was 275.17 u/L. For the same compound, the “ASPARTATE AMINOTRANSFERASE” value [2] was 73.17 u/L, the “BLOOD UREA NITROGEN” value [2] was 13.17 mg/dL and the “CARBON DIOXIDE” value [2] was 27.5 mmol/L. For the same compound, the CHLORIDE [2] was 99.67 MEQ/L, the CHOLESTEROL [2] was 60.83 mg/dL and the “CREATINE PHOSPHOKINASE” value [2] was 213 u/L. For the same compound, the CREATININE [2] was 0.2 mg/dL, the GLUCOSE [2] was 166.67 mg/dL and the “LACTATE DEHYDROGENASE” value [2] was 94.5 u/L. It also gave an LIPASE [2] of 10.5 u/L, a PHOSPHORUS [2] of 9.98 mg/dL and a POTASSIUM [2] of 5.3 MEQ/L. For the same compound, the SODIUM [2] was 140.77 MEQ/L, the “TOTAL BILIRUBIN” value [2] was 0.15 mg/dL and the “TOTAL PROTEIN” value [2] was 5.88 G/DL. The “URIC ACID” value [2] was 0.82 mg/dL, the “ABSOLUTE BASOPHIL” value [3] was 0 CELLS/uL and the “ABSOLUTE EOSINOPHIL” value [3] was 68.67 CELLS/uL. For the same compound, the “ABSOLUTE LYMPHOCYTE” value [3] was 9955.17 CELLS/uL, the “ABSOLUTE MONOCYTE” value [3] was 295.83 CELLS/uL and the “ABSOLUTE SEGMENTED NEUTROPHIL” value [3] was 1063.67 CELLS/uL. For the same compound, the BASOPHIL [3] was 0%, the EOSINOPHIL [3] was 0.67% and the “ERYTHROCYTE COUNT” value [3] was 5.78 x10E6/uL. For the same compound, the HEMATOCRIT [3] was 36.52%, the HEMOGLOBIN [3] was 13.38 G/DL and the “LEUKOCYTE COUNT” value [3] was 11.38 x10E3/uL. For the same compound, the LYMPHOCYTE [3] was 87.5%, the “MEAN CORPUSCULAR HEMOGLOBIN” value [3] was 23.22 pg and the “MEAN CORPUSCULAR HEMOGLOBIN CONCENTRATION” value [3] was 36.7 G/DL. The “MEAN CORPUSCULAR VOLUME” value [3] was 63.22 fL, the MONOCYTE [3] was 2.67% and the NEUTROPHIL [3] was 9.17%. For the same compound, the “NUCLEATED RED BLOOD CELLS” value [3] was 0 /100WBC, the “PLATELET COUNT” value [3] was 836.5 x10E3/uL and the “ALANINE AMINOTRANSFERASE” value [3] was 112.17 u/L. The ALBUMIN [3] was 3.92 G/DL, the “ALKALINE PHOSPHATASE” value [3] was 474.67 u/L and the “ASPARTATE AMINOTRANSFERASE” value [3] was 154.33 u/L. The “BLOOD UREA NITROGEN” value [3] was 15.5 mg/dL, the “CARBON DIOXIDE” value [3] was 31.67 mmol/L and the CHLORIDE [3] was 101 MEQ/L. For the same compound, the CHOLESTEROL [3] was 43.17 mg/dL, the “CREATINE PHOSPHOKINASE” value [3] was 313.5 u/L and the CREATININE [3] was 0.21 mg/dL. For the same compound, the GLUCOSE [3] was 143.17 mg/dL, the “LACTATE DEHYDROGENASE” value [3] was 105 u/L and the LIPASE [3] was 12 u/L. It also gave a PHOSPHORUS [3] of 9.75 mg/dL, a POTASSIUM [3] of 5.51 MEQ/L and an SODIUM [3] of 145.37 MEQ/L. For the same compound, the “TOTAL BILIRUBIN” value [3] was 0.1 mg/dL, the “TOTAL PROTEIN” value [3] was 5.6 G/DL and the “URIC ACID” value [3] was 0.52 mg/dL.
